Literature values as cited in US20070098654A1, “Nail whitening composition” (L'OREAL, priority 2005, published 2007).

Settings: at 20° C.

- Solubility in water: about 500 g/l
Structure (SMILES): NC(N)=O.OO [Carbamide peroxide]
